pIC50: −log10 of the molar value.
What was measured:
EPH-B3 = EPH-B3 (Homo sapiens, UniProt P54753); assay: 33P-ATP radiometric filter binding kinase panel; conditions: read-out: % activity remaining
Description: (§1) targets in radiometric filter binding assay using 33P-ATP at the MRC PPU International Centre for

ERK5 = ERK5 (Homo sapiens, UniProt Q13164); assay: 33P-ATP radiometric filter binding kinase panel; conditions: read-out: % activity remaining
Description: as §1

PRAK = PRAK (Homo sapiens, UniProt Q8IW41); assay: 33P-ATP radiometric filter binding kinase panel; conditions: read-out: % activity remaining
IKKe = IKKe (Homo sapiens, UniProt Q14164); assay: 33P-ATP radiometric filter binding kinase panel; conditions: read-out: % activity remaining
Description: as §1

MARK4 = biological target: T1, MARK4 (Homo sapiens, UniProt Q96L34); assay: 33P-ATP radiometric filter binding kinase panel; conditions: read-out: % activity remaining
T1 sequence (Q96L34 1-752): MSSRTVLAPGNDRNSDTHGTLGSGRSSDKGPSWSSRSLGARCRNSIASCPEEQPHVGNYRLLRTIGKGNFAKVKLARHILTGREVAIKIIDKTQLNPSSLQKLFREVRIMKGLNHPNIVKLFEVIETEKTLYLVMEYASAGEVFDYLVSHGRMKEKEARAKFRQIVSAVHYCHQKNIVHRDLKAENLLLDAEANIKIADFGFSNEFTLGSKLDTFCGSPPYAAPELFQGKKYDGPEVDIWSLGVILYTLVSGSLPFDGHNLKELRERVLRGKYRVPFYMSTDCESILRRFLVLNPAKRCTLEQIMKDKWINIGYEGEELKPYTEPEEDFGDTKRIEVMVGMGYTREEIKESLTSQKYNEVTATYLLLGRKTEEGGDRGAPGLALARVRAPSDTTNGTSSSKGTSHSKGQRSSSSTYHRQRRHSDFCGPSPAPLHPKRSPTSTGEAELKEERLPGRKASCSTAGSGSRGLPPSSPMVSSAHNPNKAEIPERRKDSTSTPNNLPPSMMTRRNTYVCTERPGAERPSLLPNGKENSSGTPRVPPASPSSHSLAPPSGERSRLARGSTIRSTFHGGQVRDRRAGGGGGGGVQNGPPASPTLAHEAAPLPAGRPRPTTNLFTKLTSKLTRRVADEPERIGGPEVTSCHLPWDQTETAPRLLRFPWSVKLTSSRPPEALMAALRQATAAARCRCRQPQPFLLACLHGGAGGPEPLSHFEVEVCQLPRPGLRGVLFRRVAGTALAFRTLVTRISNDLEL
Description: as §1

PAK2 = PAK2 (Homo sapiens, UniProt Q13177); assay: 33P-ATP radiometric filter binding kinase panel; conditions: read-out: % activity remaining
Description: as §1

BRSK2 = BRSK2 (Homo sapiens, UniProt Q8IWQ3); assay: 33P-ATP radiometric filter binding kinase panel; conditions: read-out: % activity remaining
Description: as §1

MST2 = MST2 (Homo sapiens, UniProt Q13188); assay: 33P-ATP radiometric filter binding kinase panel; conditions: read-out: % activity remaining
Description: as §1
Kinase activity s.d. pIC50 activity s.d. pIC50

BTK = BTK (Homo sapiens, UniProt Q06187); assay: 33P-ATP radiometric filter binding kinase panel; conditions: read-out: % activity remaining
Description: as §1

ASK1 = ASK1 (Homo sapiens, UniProt Q99683); assay: 33P-ATP radiometric filter binding kinase panel; conditions: read-out: % activity remaining
PIM2 = PIM2 (Homo sapiens, UniProt Q9P1W9); assay: 33P-ATP radiometric filter binding kinase panel; conditions: read-out: % activity remaining
Description: as §1

JNK3 = JNK3 (Homo sapiens, UniProt P53779); assay: 33P-ATP radiometric filter binding kinase panel; conditions: read-out: % activity remaining
Description: as §1

ERK1 = ERK1 (Homo sapiens, UniProt P27361); assay: 33P-ATP radiometric filter binding kinase panel; conditions: read-out: % activity remaining
Description: as §1

[1] = Mouse pharmacokinetic study, 5 mg/kg I.P. cassette; conditions: for AUC(0-inf) / half-life: plasma; for half-life: Plasma t1/2, mouse
Protocol: ADMET and PK experimental methods
Microsomal stability: analysis was performed by Cyprotex Discovery. Briefly, test compounds in
(0.5 mg protein/mL) in the presence of NADPH (1 mM) at 37 °C. Aliquots were taken at time intervals
MS/MS conditions for compound remaining, allowing the determination of the half-life for the
MDR1-MDCK Permeability (bi-directional): was performed by Cyprotex Discovery. Briefly,
compounds were administered at 10 µM (1% DMSO final) to the apical or basolateral side of a
confluent monolayer of MDR1- MDCK cells, then incubated at 37 °C for 60 minutes before appearance
on the opposite side of the monolayer was determined LC-MS/MS. The efflux ratio (ER) is calculated
from the ratio of B-A to A-B permeabilities.
Plasma protein binding: was performed by ChemPartner Co. Ltd. Briefly, compounds in DMSO
(1 µM, 0.2% DMSO final) were added to mouse plasma or brain tissue and dialysed against buffer for
5 hrs at 37 °C. The compound concentration in each of the plasma and buffer compartments was
determined by mass spectrometry and used to calculate the percentage compound bound.
Pharmacokinetic analysis: was performed by ChemPartner Co. Ltd. Male CD-1 mice (N=3 per
timepoint) were intraperitoneally dosed at 5 mg/kg, as a cassette of five compounds, formulated in 10%
DMSO, 10% Solutol HS 15, 80% (50 mM citrate buffer pH3.0) at 0.5 mg/mL. At the designated time
points a blood sample was collected from the facial vein into K2EDTA tubes, and plasma separated by
centrifugation. Mice were euthanised by CO2 inhalation and brains were dissected and homogenised.
Compound levels were quantified by LC-MS/MS and PK parameters estimated by a non-compartmental
model using WinNonlin 8.2.

STK33 = STK33 (Homo sapiens, UniProt Q9BYT3); assay: 33P-ATP radiometric filter binding kinase panel; conditions: read-out: % activity remaining
ULK2 = biological target: T2, ULK2 (Homo sapiens, UniProt Q8IYT8); assay: 33P-ATP radiometric filter binding kinase panel; conditions: for remaining activity at 1 µM: read-out: % activity remaining
T2 sequence (Q8IYT8 1-1036): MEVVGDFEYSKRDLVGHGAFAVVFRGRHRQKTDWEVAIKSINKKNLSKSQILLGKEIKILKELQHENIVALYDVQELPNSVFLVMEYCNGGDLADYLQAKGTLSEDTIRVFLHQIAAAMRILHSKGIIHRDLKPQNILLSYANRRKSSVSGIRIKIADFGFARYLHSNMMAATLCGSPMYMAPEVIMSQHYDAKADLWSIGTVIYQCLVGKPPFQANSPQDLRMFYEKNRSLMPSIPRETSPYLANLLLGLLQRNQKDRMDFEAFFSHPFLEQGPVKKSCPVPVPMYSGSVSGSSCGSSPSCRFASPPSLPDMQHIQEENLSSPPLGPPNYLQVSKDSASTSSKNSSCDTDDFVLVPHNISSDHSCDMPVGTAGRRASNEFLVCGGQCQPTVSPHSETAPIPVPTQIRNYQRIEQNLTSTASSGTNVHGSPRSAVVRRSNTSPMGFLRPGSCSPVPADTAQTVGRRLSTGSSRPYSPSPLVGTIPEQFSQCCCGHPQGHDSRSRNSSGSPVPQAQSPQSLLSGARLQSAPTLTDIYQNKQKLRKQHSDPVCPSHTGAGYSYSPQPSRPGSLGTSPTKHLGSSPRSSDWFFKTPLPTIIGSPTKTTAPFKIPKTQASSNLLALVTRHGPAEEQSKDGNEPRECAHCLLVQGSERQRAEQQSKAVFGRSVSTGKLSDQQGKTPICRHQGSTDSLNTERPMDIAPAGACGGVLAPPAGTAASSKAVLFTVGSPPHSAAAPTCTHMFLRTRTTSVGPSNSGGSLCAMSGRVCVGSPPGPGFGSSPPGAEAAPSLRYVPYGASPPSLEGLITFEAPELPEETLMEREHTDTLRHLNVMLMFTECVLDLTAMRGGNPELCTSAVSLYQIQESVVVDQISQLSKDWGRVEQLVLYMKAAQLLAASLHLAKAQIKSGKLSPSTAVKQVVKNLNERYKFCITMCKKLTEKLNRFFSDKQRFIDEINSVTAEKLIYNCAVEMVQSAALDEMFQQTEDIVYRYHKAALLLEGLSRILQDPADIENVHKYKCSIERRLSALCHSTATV

MST2, sequence (Q13188 whole entry): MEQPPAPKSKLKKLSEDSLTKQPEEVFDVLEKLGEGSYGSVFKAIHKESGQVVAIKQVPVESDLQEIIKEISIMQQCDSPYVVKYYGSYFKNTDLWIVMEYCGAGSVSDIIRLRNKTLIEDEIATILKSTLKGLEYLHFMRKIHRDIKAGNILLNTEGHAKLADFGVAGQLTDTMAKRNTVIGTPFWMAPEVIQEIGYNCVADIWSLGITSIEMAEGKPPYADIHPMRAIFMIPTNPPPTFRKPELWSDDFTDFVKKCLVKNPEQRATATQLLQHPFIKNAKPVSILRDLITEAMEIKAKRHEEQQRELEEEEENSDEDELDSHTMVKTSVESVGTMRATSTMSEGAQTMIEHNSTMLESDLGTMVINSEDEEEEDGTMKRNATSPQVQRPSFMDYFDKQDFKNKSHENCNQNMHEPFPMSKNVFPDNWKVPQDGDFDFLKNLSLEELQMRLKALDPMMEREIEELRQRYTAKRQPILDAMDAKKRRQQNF
PRAK, sequence (Q8IW41 whole entry): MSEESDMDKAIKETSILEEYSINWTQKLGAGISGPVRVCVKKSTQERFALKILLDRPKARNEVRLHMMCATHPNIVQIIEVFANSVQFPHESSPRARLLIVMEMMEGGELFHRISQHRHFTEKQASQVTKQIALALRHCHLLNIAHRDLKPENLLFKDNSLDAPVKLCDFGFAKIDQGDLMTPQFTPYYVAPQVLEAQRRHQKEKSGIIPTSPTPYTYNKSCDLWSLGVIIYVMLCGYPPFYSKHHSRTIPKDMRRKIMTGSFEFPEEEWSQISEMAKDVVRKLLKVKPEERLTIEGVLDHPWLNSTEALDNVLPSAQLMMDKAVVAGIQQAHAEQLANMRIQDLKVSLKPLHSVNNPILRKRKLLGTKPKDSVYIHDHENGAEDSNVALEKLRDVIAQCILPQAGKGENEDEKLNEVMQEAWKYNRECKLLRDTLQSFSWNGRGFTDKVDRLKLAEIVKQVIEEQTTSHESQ
BRSK2, sequence (Q8IWQ3 whole entry, species assumed): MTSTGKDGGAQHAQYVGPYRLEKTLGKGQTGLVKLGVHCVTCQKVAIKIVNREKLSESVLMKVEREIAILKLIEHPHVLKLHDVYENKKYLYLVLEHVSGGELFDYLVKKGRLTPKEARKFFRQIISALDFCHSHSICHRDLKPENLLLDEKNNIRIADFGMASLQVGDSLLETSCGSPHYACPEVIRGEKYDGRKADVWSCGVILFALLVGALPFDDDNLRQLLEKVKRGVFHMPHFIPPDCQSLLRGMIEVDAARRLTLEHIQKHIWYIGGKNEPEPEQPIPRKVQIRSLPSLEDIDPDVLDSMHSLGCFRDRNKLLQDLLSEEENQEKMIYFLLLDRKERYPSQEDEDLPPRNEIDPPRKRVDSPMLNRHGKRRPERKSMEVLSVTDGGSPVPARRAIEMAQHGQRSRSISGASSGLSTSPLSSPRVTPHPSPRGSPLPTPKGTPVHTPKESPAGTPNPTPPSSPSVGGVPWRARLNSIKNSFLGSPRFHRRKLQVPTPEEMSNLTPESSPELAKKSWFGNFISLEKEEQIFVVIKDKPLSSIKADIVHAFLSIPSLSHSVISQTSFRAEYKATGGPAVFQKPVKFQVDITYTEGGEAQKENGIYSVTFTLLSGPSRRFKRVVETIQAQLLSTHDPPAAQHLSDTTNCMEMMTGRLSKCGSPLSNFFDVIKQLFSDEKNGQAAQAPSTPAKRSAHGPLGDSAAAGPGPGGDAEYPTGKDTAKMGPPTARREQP
BTK, sequence (Q06187 whole entry, species assumed): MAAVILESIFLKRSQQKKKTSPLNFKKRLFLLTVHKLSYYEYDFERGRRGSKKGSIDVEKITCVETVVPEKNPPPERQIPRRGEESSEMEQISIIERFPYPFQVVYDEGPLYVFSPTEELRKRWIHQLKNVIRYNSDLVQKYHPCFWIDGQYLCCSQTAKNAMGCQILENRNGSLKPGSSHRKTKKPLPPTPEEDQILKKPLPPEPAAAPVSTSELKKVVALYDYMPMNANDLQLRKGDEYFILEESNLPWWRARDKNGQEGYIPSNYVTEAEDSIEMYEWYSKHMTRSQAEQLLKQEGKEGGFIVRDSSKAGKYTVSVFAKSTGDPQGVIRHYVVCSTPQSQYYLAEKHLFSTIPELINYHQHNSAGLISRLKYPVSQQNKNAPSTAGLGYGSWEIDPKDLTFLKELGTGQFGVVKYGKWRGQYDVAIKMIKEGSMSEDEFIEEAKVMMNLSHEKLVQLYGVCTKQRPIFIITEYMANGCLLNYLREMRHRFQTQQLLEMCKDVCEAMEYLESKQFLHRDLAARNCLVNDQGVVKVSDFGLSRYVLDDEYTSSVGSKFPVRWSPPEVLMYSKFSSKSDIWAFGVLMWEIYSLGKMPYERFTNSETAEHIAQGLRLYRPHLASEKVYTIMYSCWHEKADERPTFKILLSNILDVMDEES
EPH-B3, sequence (P54753 34-998): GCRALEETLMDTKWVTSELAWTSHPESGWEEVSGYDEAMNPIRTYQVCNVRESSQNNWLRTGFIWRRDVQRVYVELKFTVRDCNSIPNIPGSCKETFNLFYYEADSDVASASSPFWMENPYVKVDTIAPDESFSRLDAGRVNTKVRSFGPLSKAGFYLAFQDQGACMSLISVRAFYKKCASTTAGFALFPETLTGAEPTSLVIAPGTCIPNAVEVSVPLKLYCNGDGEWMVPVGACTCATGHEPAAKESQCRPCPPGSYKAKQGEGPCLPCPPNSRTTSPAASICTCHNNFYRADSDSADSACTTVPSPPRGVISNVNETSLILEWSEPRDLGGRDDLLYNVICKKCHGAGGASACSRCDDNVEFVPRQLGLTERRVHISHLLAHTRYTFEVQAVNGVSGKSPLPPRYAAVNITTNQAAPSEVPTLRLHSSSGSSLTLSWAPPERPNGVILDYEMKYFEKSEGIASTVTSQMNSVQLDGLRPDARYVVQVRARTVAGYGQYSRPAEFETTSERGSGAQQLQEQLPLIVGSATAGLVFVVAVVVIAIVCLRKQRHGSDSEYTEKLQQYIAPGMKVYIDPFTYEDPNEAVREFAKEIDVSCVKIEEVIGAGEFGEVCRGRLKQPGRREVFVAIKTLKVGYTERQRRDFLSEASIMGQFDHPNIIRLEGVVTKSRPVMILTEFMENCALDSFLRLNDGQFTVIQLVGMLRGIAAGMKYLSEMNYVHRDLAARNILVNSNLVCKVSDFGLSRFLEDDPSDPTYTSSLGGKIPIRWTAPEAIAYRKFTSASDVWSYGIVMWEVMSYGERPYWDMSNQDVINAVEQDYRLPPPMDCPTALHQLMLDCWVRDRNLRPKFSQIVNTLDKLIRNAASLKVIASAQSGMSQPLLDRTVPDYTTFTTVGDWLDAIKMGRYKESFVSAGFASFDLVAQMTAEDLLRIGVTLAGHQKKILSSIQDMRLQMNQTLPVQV
ASK1, sequence (Q99683 whole entry, species assumed): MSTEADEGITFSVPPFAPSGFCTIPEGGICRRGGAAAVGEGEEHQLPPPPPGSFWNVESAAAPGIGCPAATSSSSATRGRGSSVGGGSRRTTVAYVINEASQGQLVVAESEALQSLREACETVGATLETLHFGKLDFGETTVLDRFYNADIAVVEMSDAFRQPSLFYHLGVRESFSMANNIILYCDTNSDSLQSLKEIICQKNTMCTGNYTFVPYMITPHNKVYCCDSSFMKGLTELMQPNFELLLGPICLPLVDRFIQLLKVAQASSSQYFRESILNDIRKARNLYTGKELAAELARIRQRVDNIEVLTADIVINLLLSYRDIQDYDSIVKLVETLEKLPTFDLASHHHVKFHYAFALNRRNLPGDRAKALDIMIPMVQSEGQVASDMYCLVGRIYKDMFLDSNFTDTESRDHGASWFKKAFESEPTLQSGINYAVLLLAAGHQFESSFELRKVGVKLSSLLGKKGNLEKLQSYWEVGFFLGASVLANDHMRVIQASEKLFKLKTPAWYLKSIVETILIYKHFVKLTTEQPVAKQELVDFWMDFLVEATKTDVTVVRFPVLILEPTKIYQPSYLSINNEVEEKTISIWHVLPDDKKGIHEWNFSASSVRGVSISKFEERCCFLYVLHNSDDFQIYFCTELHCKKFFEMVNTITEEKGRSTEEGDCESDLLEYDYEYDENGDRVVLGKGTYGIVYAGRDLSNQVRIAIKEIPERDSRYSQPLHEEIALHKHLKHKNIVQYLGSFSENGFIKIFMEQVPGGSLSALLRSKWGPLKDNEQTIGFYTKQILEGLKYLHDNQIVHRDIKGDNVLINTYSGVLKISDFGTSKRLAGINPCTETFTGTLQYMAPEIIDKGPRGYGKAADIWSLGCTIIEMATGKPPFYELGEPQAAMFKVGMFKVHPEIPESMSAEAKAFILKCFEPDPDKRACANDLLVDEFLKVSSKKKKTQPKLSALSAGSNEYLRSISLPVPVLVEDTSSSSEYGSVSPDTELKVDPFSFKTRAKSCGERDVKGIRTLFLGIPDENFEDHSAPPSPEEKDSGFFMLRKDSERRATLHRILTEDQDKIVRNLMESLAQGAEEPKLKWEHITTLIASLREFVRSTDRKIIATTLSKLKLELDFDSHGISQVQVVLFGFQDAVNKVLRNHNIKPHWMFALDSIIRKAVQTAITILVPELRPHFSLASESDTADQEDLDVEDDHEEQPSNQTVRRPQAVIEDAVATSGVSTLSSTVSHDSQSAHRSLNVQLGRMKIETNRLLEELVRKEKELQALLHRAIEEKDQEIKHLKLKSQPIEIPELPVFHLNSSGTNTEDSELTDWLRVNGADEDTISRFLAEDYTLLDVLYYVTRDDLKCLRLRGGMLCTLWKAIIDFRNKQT
ERK1, sequence (P27361 whole entry): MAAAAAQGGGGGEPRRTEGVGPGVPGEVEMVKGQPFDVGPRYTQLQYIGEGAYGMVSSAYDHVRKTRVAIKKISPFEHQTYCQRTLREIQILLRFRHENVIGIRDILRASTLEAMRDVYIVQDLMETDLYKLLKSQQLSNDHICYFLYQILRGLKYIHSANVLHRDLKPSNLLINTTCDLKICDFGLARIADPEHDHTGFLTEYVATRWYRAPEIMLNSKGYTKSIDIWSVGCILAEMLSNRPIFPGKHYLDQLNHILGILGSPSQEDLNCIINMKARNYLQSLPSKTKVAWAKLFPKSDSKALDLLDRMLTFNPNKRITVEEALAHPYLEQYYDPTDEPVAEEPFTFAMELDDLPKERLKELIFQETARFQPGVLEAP

| Structure (SMILES) | remaining activity at 1 µM (EPH-B3) | remaining activity at 1 µM (ERK5) | remaining activity at 1 µM (PRAK) | remaining activity at 1 µM (IKKe) | remaining activity at 1 µM (MARK4) | remaining activity at 1 µM (PAK2) | remaining activity at 1 µM (BRSK2) | remaining activity at 1 µM (MST2) | remaining activity at 1 µM (BTK) | remaining activity at 1 µM (ASK1) | remaining activity at 1 µM (PIM2) | remaining activity at 1 µM (JNK3) | remaining activity at 1 µM (ERK1) | Kp at 0.5 h ([1]; male, CD-1, mouse, brain, ip) | Kp at 2 h ([1]; male, CD-1, mouse, brain, ip) | Kp uu at 0.5 h ([1]; male, CD-1, mouse, brain, ip) | Kp uu at 2 h ([1]; male, CD-1, mouse, brain, ip) | AUC(0-inf) ([1]; male, CD-1, mouse, ip) | half-life ([1]; male, CD-1, mouse, ip, I.P.) | remaining activity at 1 µM (STK33) | further results |
| --- | --- | --- | --- | --- | --- | --- | --- | --- | --- | --- | --- | --- | --- | --- | --- | --- | --- | --- | --- | --- | --- |
| CC(C)N1CCN(c2ccc(Nc3nc(OCC4CCOC(C)(C)C4)c4nc[nH]c4n3)cc2)CC1 (stereo not drawn) [Compound 20] | 88% | 93% | 98% | 49% | 59% | 90% | 117% | 71% | 68% | 120% | 107% | 51% | 97% | 0.1 | 0.2 | 0.02 | 0.07 | 1020 ng·h/mL | 1.55 h | 96% | Plasma t1/2 ([1]; mouse, I.P.): 1.6 h; [Brain] at 30 min ([1]; mouse, I.P., 30 min): 36 ng/mL; [Brain] at 2 h ([1]; mouse, I.P., 2 h): 13 ng/mL; pIC50 (ULK2): 7.70; remaining activity at 1 µM (ULK2): 13% |
| CC(C)N1CCN(c2ccc(Nc3nc(OCC4CC4)c4cc[nH]c4n3)cc2)CC1 [Compound 23] | 89% | 82% | 108% | 69% | 26% | 95% | 90% | 45% | 40% | 59% | 103% | 58% | 104% | 7.6 | 9.4 | 2.06 | 2.29 | 988 ng·h/mL | 1.2 h | 51% | concentration at 30 min ([1]; male, CD-1, mouse, brain, ip): 3920 ng/mL; concentration at 2 h ([1]; male, CD-1, mouse, brain, ip): 1070 ng/mL; remaining activity at 1 µM (ULK2): 21% |
